Test results reported in publication PMC8291587, “Guanidine Derivatives: How Simple Structural Modification of Histamine H3R Antagonists Has Led to the Discovery of Potent Muscarinic M2R/M4R Antagonists” (ACS Chemical Neuroscience, 2021).
Read-outs that look alike come from different tables or passages of the source.

How the values were obtained:
H1R [1] = target: T1, H1R (Cavia porcellus, UniProt P31389); experiment: Ex vivo screening of histamine H1R antagonists on guinea pig ileum, variant without atropine; details: isolated guinea pig ileum, histamine as agonist
T1 construct: from tissue; host or cells: isolated distal ileum of male guinea pigs
Procedure: (§1) The second histamine receptor located in the guinea pig ileum is H1R. […] The H1R antagonistic effect was measured on isolated guinea pig ileum stimulated to contract by histamine.[37] To assess and exclude the influence of the ADS compounds on muscarinic receptors, two test variations were used: one with the addition of 0.05 μM atropine and one without.
(§2) Male guinea pigs, weighing 300–400 g, were euthanized by a blow to the neck. A 20–30 cm length of the distal ileum, apart from the terminal 5 cm, was rapidly removed and placed in phosphate buffer at room temperature (pH 7.4) containing (mM) NaCl (136.9), KCl (2.6), KH2PO4 (1.47), Na2HPO4 (9.58), and indomethacin (1 × 10^–6 mol/L). The intraluminal content was rinsed, and the isolated intestine was cut into 1.5–2 cm segments. The preparations were mounted isotonically in a 20 mL organ bath filled with Krebs buffer: composition (mM) NaCl (118), KCl (5.6), MgSO4 (1.18), CaCl2 (2.5), NaH2PO4·H2O (1.28), NaHCO3 (25), glucose (5.55), and indomethacin (3 × 10^–7 mol/L). […] The solution was continuously bubbled with a 95% O2:5% CO2 mixture and maintained at 37 °C under a constant load of 0.5 g (Hugo Sachs Hebel–Messvorsatz (Tl-2)/HF-modem; Hugo Sachs Elektronik, Hugstetten, Germany) connected to a pen recorder (Kipp & Zonen BD41, Delft, Holland). During an equilibration period of 40 min, Krebs buffer was changed every 10 min. The first cumulative concentration–response curve was determined for histamine (10 nM to 10 mM) at increasing concentrations spaced by 3- or 3.3-fold. The second to the fourth (or fifth) curves were measured in the presence of an increasing concentrations of antagonist (incubation time 10 min). The pA2 values were calculated according to Arunlakshana and Schild.[37] Statistical analysis was carried out with the Students’ t test. In all tests, a p < 0.05 was considered statistically significant.

H1R [2] = target: T1, H1R; experiment: Ex vivo screening of histamine H1R antagonists on guinea pig ileum, variant with 0.05 μM atropine; details: isolated guinea pig ileum, histamine as agonist
Procedure: as §1, §2

hM3R = target: T2, hM3R (Homo sapiens, UniProt P20309); experiment: hM3R radioligand binding ([3H]NMS, CHO cell membranes)
T2 construct: host or cells: CHO cells, stably transfected; crude membranes
Procedure: To clearly explain the obtained outcome, we engaged the radioligand binding experiment. The hM1–hM5 radioligand binding experiments were performed in the membrane fractions of Chinese hamster ovary cells (CHO) stably expressing human variants of muscarinic receptors. N-[^3H]Methylscopolamine was used as the radiolabeled ligand.[39] Three compounds were selected from ex vivo screening on guinea pig ileum. […] This compound is also not completely selective for the remaining muscarinic receptor subtypes with −log Ki values over 6. […] It is also a potent muscarinic M1R antagonist, and the M1R/M2R selectivity ratio is <10. It is worth noting that such nonspecific anticholinergics are often associated with neuropsychiatric and cognitive disturbances and that nonselective muscarinic M1R/M2R antagonists, such as scopolamine, can produce cognitive deficits. Further structural modifications of ADS10227 should be used to increase selectivity toward the M2R, as these may present fewer potential side effects associated with the activation of the phospholipase C signaling pathway.
The culture was derived from CHO cells stably transfected with the genes of human variants of muscarinic receptors. These were purchased from Missouri S&T cDNA Resource Center (Rolla, MO, USA). Cell cultures and crude membranes were prepared as described previously.[45] […]
All radioligand binding experiments were optimized and carried out according to general guidelines.[39] […] N-Methylscopolamine binding was measured directly in saturation experiments using six concentrations (30–1000 pM) of [^3H]NMS during incubation for 1 h (M2R), 3 h (M1R, M3R, and M4R), or 5 h (M5R). For calculations of the equilibrium dissociation constant (KD), concentrations of free [^3H]NMS were calculated by subtraction of bound radioactivity from total radioactivity in the sample and fitting eq 1 (Experimental Data analysis section). The binding of the tested ligands was determined in competition experiments with 100 pM [^3H]NMS. […] Nonspecific binding was determined in the presence of 1 μM unlabeled atropine. […]

[3] = read-out: H1R pA2 gpi ± sem (converted)
[4] = read-out: H1R+atropine pA2 gpi ± sem (converted)
[5] = read-out: hM3R -log(Ki) ± sem (converted)

T1 sequence (P31389 whole entry): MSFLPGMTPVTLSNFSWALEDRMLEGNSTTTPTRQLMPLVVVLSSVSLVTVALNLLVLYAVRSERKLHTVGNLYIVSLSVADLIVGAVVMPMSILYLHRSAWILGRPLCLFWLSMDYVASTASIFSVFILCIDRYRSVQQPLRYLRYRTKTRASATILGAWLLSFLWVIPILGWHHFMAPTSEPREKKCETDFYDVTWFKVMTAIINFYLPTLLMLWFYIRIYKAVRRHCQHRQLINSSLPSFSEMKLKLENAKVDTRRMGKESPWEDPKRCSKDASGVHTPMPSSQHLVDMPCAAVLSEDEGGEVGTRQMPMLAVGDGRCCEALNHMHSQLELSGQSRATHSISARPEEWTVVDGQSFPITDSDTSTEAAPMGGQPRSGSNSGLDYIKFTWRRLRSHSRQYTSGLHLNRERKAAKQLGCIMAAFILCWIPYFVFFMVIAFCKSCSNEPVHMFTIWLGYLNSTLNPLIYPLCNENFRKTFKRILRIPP
T2 sequence (P20309 whole entry): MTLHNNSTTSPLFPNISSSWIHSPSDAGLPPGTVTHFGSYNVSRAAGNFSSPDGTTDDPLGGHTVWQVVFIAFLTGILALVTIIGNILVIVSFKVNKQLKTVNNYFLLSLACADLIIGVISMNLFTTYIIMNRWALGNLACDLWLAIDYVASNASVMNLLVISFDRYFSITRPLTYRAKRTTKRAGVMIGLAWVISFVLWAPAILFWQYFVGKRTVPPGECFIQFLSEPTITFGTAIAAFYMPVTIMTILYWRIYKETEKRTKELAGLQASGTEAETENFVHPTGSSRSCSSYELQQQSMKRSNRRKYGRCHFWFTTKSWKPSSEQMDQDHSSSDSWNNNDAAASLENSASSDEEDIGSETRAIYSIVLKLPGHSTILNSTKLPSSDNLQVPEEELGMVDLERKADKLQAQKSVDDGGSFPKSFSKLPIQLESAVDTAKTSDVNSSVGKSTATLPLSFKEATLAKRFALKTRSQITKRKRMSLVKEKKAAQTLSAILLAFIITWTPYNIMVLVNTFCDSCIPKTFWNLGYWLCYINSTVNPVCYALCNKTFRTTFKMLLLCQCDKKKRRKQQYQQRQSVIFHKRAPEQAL

Row | SMILES | Kb (H1R [1]; [3]) [µM] | Kb (H1R [2]; [4]) [µM] | Ki (hM3R; [5]) [µM] | Kb (H1R [1]; H1R pA2 gpi ± sem) [µM] | Kb (H1R [2]; H1R+atropine pA2 gpi ± sem) [µM] | Ki (hM3R; hM3R -log(Ki) ± sem) [µM]
1 | [H]/N=C(/N)N(CCCCN1CCN(CC2CCC(COc3ccccc3)CC2)CC1)Cc1ccc(C(F)(F)F)cc1 (stereo not drawn) [ADS10239] | 0.11 | 0.151 | 0.123 | – | – | –
2 | N=C(N)N(CCCCN1CCN(C[C@H]2CC[C@@H](COc3ccccc3)CC2)CC1)Cc1ccccc1 [ADS10227, 1-{4-{4-{[4-(phenoxymethyl)cyclohexyl]methyl}piperazin-1-yl}but-1-yl}-1-(benzyl)guanidine] | 0.0708 | 0.257 | 0.0513 | – | – | –
3 | N=C(N)N(CCCCN1CCN(CCCCCCCOc2ccccc2)CC1)Cc1ccccc1 [ADS1017] | – | – | – | 0.331 | 0.251 | 0.347
